Data as given in ChEMBL document CHEMBL5050861 (2021).
In brackets after ≈: the same amount, converted by molar mass.

Key:
[1] = Kinetic aqueous solubility of the compound; assay type: physicochemical; settings: buffer; read-out: Kinetic_solubility
[2] = Inhibition of human GALK1 K252A/E253A double mutant
[3] = Stability of compound in rat microsomes assessed as half-life; assay type: ADME, Microsome
Homo sapiens = species on record: Homo sapiens; test: Inhibition of human GALK1 K252A/E253A double mutant relative to control; design: concentration or dose not given beside the values; settings: concentration not given here
[4] = Inhibition of recombinant mouse GALK1 using ATP as substrate incubated for 1 hr and measured by Kinase-Glo assay
[5] = Permeability of compound by PAMPA assay; assay type: ADME; settings: for Papp: read-out: permeability

SMILES	solubility kinetic [1] [µg/mL]	IC50 ([2]; read-out: IC50) [µM]	half-life [3] [min]	inhibition (Homo sapiens) [%]	IC50 ([4]; read-out: IC50) [µM]	Papp [5] [×10⁻⁶ cm/s]	IC50 [4]	IC50 [2]	permeability [5]
CC1=C(C(=O)Nc2cc(C(=O)O)ccn2)C(c2cccc(F)c2Cl)N=C(Nc2nc3ccc(F)cc3o2)N1 (stereo not drawn)	< 10000	1.8	< 10	100	15.3	< 10	–	–	–
COc1cccc2nc(NC3=NC(c4ccccc4Cl)C(C(=O)Nc4cc(C(=O)O)ccn4)=C(C)N3)oc12 (stereo not drawn)	65.7 (≈ 123 µM)	> 15	> 30	80	–	< 1	Not Active	–	–
CC1=C(C(=O)Nc2cc(C(=O)O)ccn2)C(c2cccc(C(F)(F)F)c2)N=C(Nc2nc3ccc(F)cc3o2)N1 (stereo not drawn)	60.1 (≈ 108 µM)	> 15	> 30	90	–	< 1	Not Active	–	–
CC1=C(C(=O)Nc2cc(C(=O)O)ccn2)C(c2ccccc2Cl)N=C(Nc2nc3cccc(C(F)(F)F)c3o2)N1 (stereo not drawn)	61.1 (≈ 107 µM)	> 15	> 30	100	48.5	< 1	–	–	–
CC1=C(C(=O)Nc2cc(C(=O)O)ccn2)C(c2ccccc2Cl)N=C(Nc2nc3cccc(F)c3o2)N1 (stereo not drawn)	> 77	1	> 30	100	8.63	< 1	–	–	–
COc1ccc(C2N=C(Nc3nc4ccc(F)cc4o3)NC(C)=C2C(=O)Nc2cc(C(=O)O)ccn2)c(Cl)c1 (stereo not drawn)	8.3 (≈ 15.1 µM)	0.3	> 30	100	3.06	< 10	–	–	–
CC1=C(C(=O)Nc2cc(C(=O)O)ccn2)C(c2ccc(C)cc2Cl)N=C(Nc2nc3ccc(F)cc3o2)N1 (racemic)	2.8 (≈ 5.23 µM)	0.136	> 30	100	3.06	–	–	–	–
CC1=C(C(=O)Nc2cc(C(=O)O)ccn2)C(c2ccccc2Cl)N=C(Nc2nc3ccc(Cl)cc3o2)N1 (stereo not drawn)	6.3 (≈ 11.7 µM)	2.25	> 30	100	6.11	< 10	–	–	–
CC1=C(C(=O)NCc2cnn(C)c2)C(c2ccc(C)cc2Cl)N=C(Nc2nc3cccc(N)c3o2)N1 (stereo not drawn)	4.47 (≈ 8.85 µM)	0.047	14.1	–	2.17	–	–	–	25.28 10^-6 cm/s
CC1=C(C(=O)Nc2cc(C(=O)O)ccn2)C(c2ccccc2Cl)N=C(Nc2nc3cc(Cl)ccc3o2)N1 (stereo not drawn)	35.2 (≈ 65.5 µM)	1.7	> 30	100	6.11	< 1	–	–	–
CC1=C(C(=O)Nc2cc(C(=O)O)ccn2)C(c2cccc(C(F)(F)F)c2Cl)N=C(Nc2nc3ccc(F)cc3o2)N1 (stereo not drawn)	70.1 (≈ 119 µM)	2.4	> 30	97	27.3	< 10	–	–	–
COc1cccc(C2N=C(Nc3nc4ccc(F)cc4o3)NC(C)=C2C(=O)Nc2cc(C(=O)O)ccn2)c1Cl (stereo not drawn)	> 81	5.4	> 30	100	19.3	< 1	–	–	–
CC1=C(C(=O)Nc2cc(C(=O)O)ccn2)C(c2ccccc2Cl)N=C(Nc2nc3cc(C)ccc3o2)N1 (stereo not drawn)	< 1	0.611	> 30	100	3.06	< 1	–	–	–
CC1=C(C(=O)Nc2cc(C(=O)O)ccn2)C(c2ccc(Cl)cc2Cl)N=C(Nc2nc3ccc(F)cc3o2)N1 (stereo not drawn)	< 1	0.345	> 30	85	3.85	< 1	–	–	–
CC1=C(C(=O)Nc2cc(C(=O)O)ccn2)C(c2ccccc2Cl)N=C(Nc2nc3c(Cl)cccc3o2)N1 (stereo not drawn)	< 1	5.8	> 30	85	13.7	< 1.3	–	–	–
CC1=C(C(=O)Nc2cc(C(=O)O)ccn2)C(c2ccccc2Cl)N=C(Nc2nc3cc(F)ccc3o2)N1 (stereo not drawn)	< 10000	3.6	< 10	100	17.2	< 10	–	–	–
CC1=C(C(=O)Nc2nnc(-c3cccnc3)s2)C(c2ccccc2Cl)N=C(Nc2nc3cc(C)ccc3o2)N1 (stereo not drawn)	< 1	–	> 30	–	10.9	< 1.5	–	–	–
O=C1CC(C(=O)N2CCNCC2)CC2=C1C(c1ccccc1Cl)N=C(Nc1nc3ccccc3o1)N2 (stereo not drawn)	23.9 (≈ 47.3 µM)	–	30	–	7.69	< 4.7	–	–	–
CC1=C(C(=O)Nc2cc(C(=O)O)ccn2)C(c2ccc(N3CCCC3)cc2Cl)N=C(Nc2nc3ccc(F)cc3o2)N1 (stereo not drawn)	> 87	–	> 30	–	10.9	< 1	–	–	–
CC1=C(C(=O)Nc2cc(C(=O)O)ccn2)C(c2ccc(C(F)(F)F)cc2Cl)N=C(Nc2nc3ccc(F)cc3o2)N1 (stereo not drawn)	19.4 (≈ 32.9 µM)	–	> 30	–	10.9	< 1	–	–	–
CC1=C(C(=O)Nc2cc(C(=O)O)ccn2)C(c2ccc(C#N)cc2Cl)N=C(Nc2nc3ccc(F)cc3o2)N1 (stereo not drawn)	> 81	–	> 30	–	3.85	< 1	–	–	–
CC1=C(C(=O)Nc2cc(-c3nn[nH]n3)ccn2)C(c2ccc(C)cc2Cl)N=C(Nc2nc3ccc(F)cc3o2)N1 (stereo not drawn)	< 1	–	> 30	–	9.68	< 1	–	–	–

Now from value to compound:

solubility kinetic [1] [µg/mL]	IC50 ([2]; read-out: IC50) [µM]	half-life [3] [min]	inhibition (Homo sapiens) [%]	IC50 ([4]; read-out: IC50) [µM]	Papp [5] [×10⁻⁶ cm/s]	IC50 [4]	IC50 [2]	permeability [5]	SMILES
< 1	–	4.52	48	13.7	< 10	–	Not Active	–	CC1=C(C(=O)NCc2nc3ccccc3n2C)C(c2ccccc2Cl)N=C(Nc2nc3ccccc3o2)N1 (stereo not drawn)
< 1	3.4	> 30	96	7.69	–	–	–	–	CC1=C(C(=O)Nc2nncs2)C(c2ccccc2Cl)N=C(Nc2nc3ccccc3o2)N1 (stereo not drawn)
> 75	1.7	> 30	99	–	< 1	–	–	–	CC1=C(C(=O)Nc2ncc(C(=O)O)s2)C(c2ccccc2Cl)N=C(Nc2nc3ccccc3o2)N1 (stereo not drawn)
> 74	0.97	> 30	88	6.85	–	–	–	–	CC1=C(C(=O)Nc2cc(C(=O)O)ccn2)C(c2ccccc2Cl)N=C(Nc2nc3ccccc3o2)N1 (racemic)
26.6 (≈ 55.9 µM)	0.77	14.6	90	7.69	–	–	–	–	CC1=C(C(=O)NCc2cn(C)cn2)C(c2ccccc2Cl)N=C(Nc2nc3ccccc3o2)N1 (racemic)
42 (≈ 88.2 µM)	1.4	8.87	98	6.85	–	–	–	–	CC1=C(C(=O)NCc2cncn2C)C(c2ccccc2Cl)N=C(Nc2nc3ccccc3o2)N1 (stereo not drawn)
< 1	3.9	> 30	95	10.7	–	–	–	–	CC1=C(C(=O)Nc2nnc(C)s2)C(c2ccccc2Cl)N=C(Nc2nc3ccccc3o2)N1 (stereo not drawn)
< 1	1.2	6.43	84	12.2	–	–	–	–	CC1=C(C(=O)NCc2cncs2)C(c2ccccc2Cl)N=C(Nc2nc3ccccc3o2)N1 (stereo not drawn)
< 1	1.4	> 30	100	6.11	–	–	–	–	CC1=C(C(=O)Nc2ccc(C(=O)O)cc2)C(c2ccccc2Cl)N=C(Nc2nc3ccccc3o2)N1 (stereo not drawn)
< 1	–	3.16	–	10.7	< 2.7	–	–	–	CCOC(=O)c1nnc(NC(=O)C2=C(C)NC(Nc3nc4ccccc4o3)=NC2c2ccccc2Cl)s1 (stereo not drawn)
